A short description of series [1]: Stability in sugar-acid solution, quantified by GC/MS internal standard method. Type of series: physicochemical. The note with it: 0.1% in sugar-acid solution (7% granulated sugar, 0.12% citric acid); room temperature (25° C.), 8 weeks, light shielding. As for the experimental part:
A stability of the present compound was evaluated by the following procedure. An aqueous solution including 7% granulated sugar and 0.12% citric acid (hereinafter, which may be referred to as a sugar-acid solution) was prepared. To this sugar-acid solution, the present invention product 1-1 was added so that the concentration was 0.1% to obtain the present invention product 3-1. As a comparative reference to the present compound, citral was added to a separately prepared sugar-acid solution so that the concentration was 0.1% to obtain the comparative product 3-1. Then, the present invention product 3-1 and the comparative product 3-1 were stored at room temperature (25° C.) for 8 weeks under light shielding. On the present invention product 3-1 and the comparative product 3-1, the present compound and citral were quantitatively analyzed by the internal standard method by using 2-chlorophenol as an internal standard substance under the following GC analysis conditions. The measurements were performed by using a GC/MS (apparatus name: GC 7890A/MSD 5975C, manufactured by Agilent Technologies Japan, Ltd.). […]

A short description of series [2]: Aroma properties: 1% ethanol solutions sniffed by panelists. As to conditions: 1% ethanol solution; sniffed by 5 well-trained panelists; representative comments. Here is the method:
An aroma of the present compound was evaluated by the following procedure. A 1% ethanol solution of the present invention product 1-1 was prepared and used as the present invention product 2-1. As a comparative reference to the present compound, a 1% ethanol solution of citral was prepared and used as the comparative product 2-1, and a 1% ethanol solution of 4,8-dimethylnona-3,7-dien-2-one was prepared and used as the comparative product 2-2. 5 well-trained panelists having 10 years or more of experience sniffed at the present invention product 2-1 and the comparative products 2-1 and 2-2, and commented on felt aromas.

Series [3] can be described thus: Detecting threshold concentration. The note with it: compared with citral.

As for `C=C(CCC=C(C)C)CC(C)=O` [present compound, 8-methyl-4-methylenenona-7-en-2-one], the “concentration after storage relative to the initial concentration” value in series [1] worked out at 90%. Moreover, the “Comment (felt aromas)” value in series [2] is “does not have the aspect of floral aromas”. Moreover, in series [3], the detecting threshold concentration entry is “the same level as that of citral”.
Consider `CC(C)=CCCC(C)=CC=O` [citral, reference compound], for which the “concentration after storage relative to the initial concentration” value in series [1] is given as “completely disappeared”.

(Values after patent publication US12490760B2, “Compound and flavor-imparting composition using same” (T. HASEGAWA CO., LTD., priority 2021, dated 2025).)
